Common to all, as to type: cell-based
The test system of test [1] is HCV 1a RLuc cells (dicistronic genotype 1a H77 replicon, RLuc reporter). Nature of the test: microbe, parasite or virus in culture. The settings on record: Hepatitis C virus, read-out: 1a. In outline: (§1)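 Replicons used: genotype 1b Con1, 1a H77, 2a JFH-1, and a 2a JFH-1 chimera with J6-strain NS5A (M31 present), all dicistronic.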
Test [2] relates to HCV 1b RLuc cells (dicistronic genotype 1b Con1 replicon, RLuc reporter). Nature of the test: microbe, parasite or virus in culture. To be noted: Hepatitis C virus, read-out: 1b (nM). The gist of the method:
as §1

Test [3] relates to HCV 2a JFH-1 Rluc cells (dicistronic genotype 2a JFH-1 replicon, RLuc reporter). Nature of the test: microbe, parasite or virus in culture. The settings on record: Hepatitis C virus, read-out: 2a JFH. The gist of the method: as §1
For test [4], the system named is HCV 2b Rluc cells (NS5A chimeric genotype 2a JFH-1 replicon with genotype 2b MD2b-1 NS5A gene, M31 present). Nature of the test: microbe, parasite or virus in culture. The settings on record: Hepatitis C virus, read-out: 2b. In outline: (§2)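 Replicon cells stably carrying the listed RLuc-encoding dicistronic replicons were seeded and treated with DMSO serial dilutions of compound (10 mM stocks) diluted into culture medium. After 72 h, cells were lysed and Renilla luciferase activity measured. EC50 was derived by non-linear regression.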

For test [5], the system named is HCV 3a RLuc cells (NS5A chimeric genotype 1b Con1 replicon with consensus genotype 3a NS5A gene). Nature of the test: microbe, parasite or virus in culture. To be noted: Hepatitis C virus. The gist of the method:
as §2

Test [6] has as its system HCV 4a Rluc cells (NS5A chimeric genotype 1b Con1 replicon with genotype 4a NS5A gene). Nature of the test: microbe, parasite or virus in culture. The settings on record: Hepatitis C virus, read-out: 4a. The gist of the method:
as §2

The subject of test [7] is HCV 2a Rluc cells (NS5A chimeric genotype 2a JFH-1 replicon with genotype 2a J6 strain NS5A gene, M31 present). Nature of the test: HCV replicon reporter assay, genotype 2a J6 (M31 present). The settings on record: Hepatitis C virus, read-out: 2a J6. In outline: as §1
(In general: A replicon is a self-replicating genome or part of one, used to study replication in cells.)

Where [8] appears, read: genotype 1a H77 replicon, RLuc reporter.
Setting [9] is: genotype 2a JFH-1 replicon, RLuc reporter.
Setting [10] is: read-out: 3a, genotype 3a NS5A chimeric 1b Con1 replicon.
Setting [11] is: read-out: 3a, genotype 3a replicon.
Where [12] appears, read: genotype 2a JFH-1 RLuc replicon.
The mark [13] stands for this setting: read-out: 3a, genotype 3a NS5A chimeric replicon.

Where two headings read alike, the source gives them in different places.

On to `COC(=O)N[C@H](C(=O)N1CCC[C@H]1c1nc2ccc3cc(-c4ccc5cc(-c6cnc([C@@H]7CCCN7C(=O)[C@H](NC(=O)OC)c7ccccc7)[nH]6)ccc5c4)ccc3c2[nH]1)C(C)C` [Example 206], for which the EC50 in test [1] (setting [8]) is 0.001 to 0.999 nM; in test [2] it was 0.005 nM; in test [3] (setting [9]), 0.001 to 0.999 nM; in test [4], > 44 nM; in test [5] (setting [10]) it was 0.001 to 0.99 nM; in test [6], 0.001 to 0.99 nM. Besides, the EC50 in test [7] is 1 to 44 nM.
As to `COC[C@H]1C[C@@H](c2nc3ccc4cc(-c5ccc(-c6cnc([C@@H]7CCCN7C(=O)[C@H](NC(=O)OC)c7ccccc7)[nH]6)cc5OCC(F)(F)F)ccc4c3[nH]2)N(C(=O)[C@@H](NC(=O)OC)C(C)C)C1` [Example 474], the EC50 is 0.001 to 0.999 nM in test [1] (genotype 1a replicon); 0.025 nM in test [2]; 0.001 to 0.999 nM in test [3] (genotype 2a JFH-1 replicon); 1 to 44 nM in test [4]; 0.001 to 0.99 nM in test [5] (setting [11]); 0.001 to 0.99 nM in test [6]. Moreover, the EC50 in test [7] was 1 to 44 nM.
`CC(=O)N[C@@H](C(=O)N1CCC[C@H]1c1ncc(-c2cc3c4c(c2)OCc2cc(-c5cnc([C@@H]6CCCN6C(=O)[C@H](NC(C)=O)c6ccccc6)[nH]5)cc(c2-4)OC3)[nH]1)c1ccccc1` [Example 419]: the EC50 in test [1] (genotype 1a replicon) is 1 to 44 nM; in test [2], 0.786 nM; in test [3] (genotype 2a JFH-1 replicon), 0.001 to 0.999 nM; in test [4], 0.001 to 0.999 nM; in test [5] (setting [11]), 0.001 to 0.99 nM; in test [6], 0.001 to 0.99 nM. Moreover, in test [7], the EC50 was 0.001 to 0.999 nM.
Turning to `COC(=O)N[C@H](C(=O)N1CCC[C@H]1c1nc2ccc3cc(-c4ccc5c(ccc6nc([C@@H]7[C@@H]8CC[C@@H](C8)N7C(=O)[C@H](NC(=O)OC)c7ccccc7)[nH]c65)c4)ccc3c2[nH]1)C(C)C` [Example 429], the EC50 in test [1] (genotype 1a replicon) was 0.001 to 0.999 nM; in test [2] it was 0.033 nM; in test [3] (genotype 2a JFH-1 replicon), 0.001 to 0.999 nM; in test [4], 1 to 44 nM; in test [5] (setting [11]), 0.001 to 0.99 nM; in test [6] it was 0.001 to 0.99 nM. The EC50 in test [7] lay in the range of 1 to 44 nM.
As to `CCO[C@H]1C[C@@H](c2ncc(-c3ccc(-c4ccc5cc(-c6cnc([C@@H]7CCCN7C(=O)[C@@H](NC(=O)OC)C(C)C)[nH]6)ccc5c4)cc3)[nH]2)N(C(=O)[C@H](NC(=O)OC)c2ccccc2)C1` [Example 157], the EC50 is 0.001 to 0.999 nM in test [1] (setting [8]); 0.008 nM in test [2]; 0.001 to 0.999 nM in test [3] (setting [9]); 1 to 44 nM in test [4]; 1 to 4.99 nM in test [5] (setting [10]); 0.001 to 0.99 nM in test [6]. In addition, the EC50 in test [7] is > 44 nM.
For `COC(=O)N[C@H](C(=O)N1CCC[C@H]1c1nc(Cl)c(-c2ccc(-c3ccc(-c4[nH]c([C@@H]5CCCN5C(=O)[C@@H](NC(=O)OC)C(C)C)nc4Cl)cc3)cc2)[nH]1)C(C)C` [Example 352], the EC50 in test [1] (genotype 1a replicon) was 0.001 to 0.999 nM; in test [2], 0.011 nM; in test [3] (genotype 2a JFH-1 replicon) it was 0.001 to 0.999 nM; in test [4], 1 to 44 nM; in test [5] (setting [11]), 0.001 to 0.99 nM; in test [6], 0.001 to 0.99 nM. For the same compound, in test [7], the EC50 fell in the range of 1 to 44 nM.
As for `CC(C)(C)C(=O)N[C@@H](C(=O)N1CCC[C@H]1c1ncc(-c2cc3c4c(c2)OCc2cc(-c5cnc([C@@H]6CCCN6C(=O)[C@H](NC(=O)C(C)(C)C)c6ccccc6)[nH]5)cc(c2-4)OC3)[nH]1)c1ccccc1` [Example 466], the EC50 is 0.001 to 0.999 nM in test [1] (genotype 1a replicon); 0.042 nM in test [2]; 0.001 to 0.999 nM in test [3] (genotype 2a JFH-1 replicon); 1 to 44 nM in test [4]; 0.001 to 0.99 nM in test [5] (setting [11]); 0.001 to 0.99 nM in test [6]. In addition, the EC50 in test [7] lay within 1 to 44 nM.
As to `COC[C@H]1C[C@@H](c2nc3ccc4cc(-c5ccc6c(ccc7nc([C@@H]8[C@@H]9CC[C@@H](C9)N8C(=O)[C@H](NC(=O)OC)c8ccccc8)[nH]c76)c5)ccc4c3[nH]2)N(C(=O)[C@@H](NC(=O)OC)C(C)C)C1` [Example 452], the EC50 in test [1] (genotype 1a replicon) is 0.001 to 0.999 nM; in test [2] it was 0.047 nM; in test [3] (genotype 2a JFH-1 replicon), 0.001 to 0.999 nM; in test [4], 1 to 44 nM; in test [5] (setting [11]) it was 0.001 to 0.99 nM; in test [6], 0.001 to 0.99 nM. For the same compound, the EC50 in test [7] is 0.001 to 0.999 nM.
`O=C(N[C@@H](C(=O)N1CCC[C@H]1c1ncc(-c2cc3c4c(c2)OCc2cc(-c5cnc([C@@H]6CCCN6C(=O)[C@H](NC(=O)C6CCOCC6)c6ccccc6)[nH]5)cc(c2-4)OC3)[nH]1)c1ccccc1)C1CCOCC1` [Example 490]: the EC50 is 1 to 44 nM in test [1] (genotype 1a H77 RLuc replicon); 0.989 nM in test [2]; 0.001 to 0.999 nM in test [3] (setting [12]); 0.001 to 0.999 nM in test [4]; 0.001 to 0.99 nM in test [5] (setting [13]); 0.001 to 0.99 nM in test [6]. Moreover, in test [7], the EC50 is 0.001 to 0.999 nM.
As to `COC(=O)N[C@H](C(=O)N1CCC[C@H]1c1ncc(-c2ccc3c(c2)COc2c-3ccc3c2ccc2nc([C@@H]4CCCN4C(=O)[C@@H](NC(=O)OC)C(C)C)[nH]c23)[nH]1)C(C)C` [Example 400], the EC50 in test [1] (genotype 1a replicon) is 0.001 to 0.999 nM; in test [2], 0.017 nM; in test [3] (genotype 2a JFH-1 replicon), 0.001 to 0.999 nM; in test [4] it was > 44 nM; in test [5] (setting [11]), 0.001 to 0.99 nM; in test [6] it was 0.001 to 0.99 nM. Besides, the EC50 in test [7] is > 44 nM.
Take `COC(=O)N[C@H](C(=O)N1CCC[C@H]1c1nc2ccc3cc(-c4ccc5c(ccc6nc([C@@H]7C[C@H](SC)CN7C(=O)[C@@H](NC(=O)OC)C(C)C)[nH]c65)c4)ccc3c2[nH]1)C(C)C` [Example 515]: the EC50 in test [1] (genotype 1a H77 RLuc replicon) is 0.001 to 0.999 nM; in test [2], 0.047 nM; in test [3] (setting [12]) it was 0.001 to 0.999 nM; in test [4], 1 to 44 nM; in test [5] (setting [13]) it was 0.001 to 0.99 nM; in test [6], 0.001 to 0.99 nM. Also, in test [7], the EC50 lay in the range of 0.001 to 0.999 nM.
For `COC(=O)N[C@H](C(=O)N1CCC[C@H]1c1ncc(-c2ccc3cc(-c4ccc5c(c4)CCc4nc([C@@H]6CCCN6C(=O)[C@@H](NC(=O)OC)C(C)C)[nH]c4-5)ccc3c2)[nH]1)C(C)C` [Example 114], the EC50 in test [1] (setting [8]) was 0.001 to 0.999 nM; in test [2], 0.011 nM; in test [3] (setting [9]), 1 to 44 nM; in test [4], > 44 nM; in test [5] (setting [10]) it was 1 to 4.99 nM; in test [6] it was 0.001 to 0.99 nM. In test [7], the EC50 was > 44 nM.
`COC(=O)N[C@H](C(=O)N1CCC[C@H]1c1ncc(-c2ccc3c4c(ccc3c2)-c2ccc(-c3cnc([C@@H]5CCCN5C(=O)[C@H](NC(=O)OC)c5ccccc5)[nH]3)cc2CO4)[nH]1)C(C)C` [Example 1]: the EC50 in test [1] (72 h, Table 1, genotype 1a H77 replicon, 72 hours) was 0.001 to 0.999 nM; in test [2] (72 h), 0.008 nM; in test [3] (72 h, Table 1, genotype 2a JFH-1 replicon, 72 hours), 0.001 to 0.999 nM; in test [4] it was > 44 nM; in test [5] (read-out: 3a, Table 1, genotype 3a NS5A chimeric replicon), 0.001 to 0.99 nM; in test [6], 0.001 to 0.99 nM. In test [7], the EC50 is > 44 nM.
As to `COC(=O)N[C@H](C(=O)N1CCC[C@H]1c1ncc(-c2ccc3c(c2)COc2cc4c(ccc5nc([C@@H]6C[C@H]7C[C@H]7N6C(=O)[C@@H](NC(=O)OC)C(C)C)[nH]c54)cc2-3)[nH]1)C(C)C` [Example 518], the EC50 was 0.001 to 0.999 nM in test [1] (genotype 1a H77 RLuc replicon); 0.01 nM in test [2]; 0.001 to 0.999 nM in test [3] (setting [12]); 0.001 to 0.999 nM in test [4]; 0.001 to 0.99 nM in test [5] (setting [13]); 0.001 to 0.99 nM in test [6]. The EC50 in test [7] lay within 1 to 44 nM.

Source of the values: patent publication US10344019B2 (priority 2010, dated 2019).
